Legend:
[1] = tested on: Xylose reductase (Candida tenuis); assay: Ratio of catalytic constant (kcat)/Kinetic constant(Km)
[2] = tested on: Xylose reductase (Candida tenuis); assay: The catalytic constant(kcat) for the NADH-catalyzed by aldose reductase from candida tenuis; conditions: Yamadazyma tenuis

| Compound | k cat/Km [1] [M⁻¹ s⁻¹] | k cat [2] [s⁻¹] |
| --- | --- | --- |
| OC1O[C@H](CF)[C@H](O)[C@H]1O (some centres undefined) | 34300 | 22.3 |
| C[C@H]1OC(O)[C@H](O)[C@H]1O (some centres undefined) | 23200 | 21.6 |
| [N-]=[N+]=NC[C@H]1OC(O)[C@H](O)[C@H]1O (some centres undefined) | 1690 | – |
| CC[C@H]1OC(O)[C@H](O)[C@H]1O (some centres undefined) | 38900 | 20.6 |
| OC1OC(C(F)CF)C(O)C1O (centres undefined) | 15300 | 21.4 |

Reference: ChEMBL document CHEMBL1131752, “Binding and catalysis by yeast aldose reductase: a substrate-analog approach with new aldose derivatives” (Bioorg Med Chem Lett, 1999)
